Reference: patent publication US20120129875A1, “SUBSTITUTED QUINAZOLINES AS FUNGICIDES” (SYNGENTA CROP PROTECTION, LLC, priority 2009, published 2012)

What was measured:
Assay type in all cases: in vivo
[1] = system: Erysiphe necator (Uncinula necator); assay: Erysiphe necator (Uncinula necator) / grape / preventative (powdery mildew on grape); settings: grape seedlings cv. Gutedel, inoculated 1 day after application, vs untreated control, read-out: disease control
Protocol: Erysiphe necator (Uncinula necator)/Grape/Preventative (Powdery Mildew on Grape) 5-week old grape seedlings cv. Gutedel are treated with the formulated test compound in a spray chamber. The test plants are inoculated by shaking plants infected with grape powdery mildew above them 1 day after application. The inoculated test plants are incubated at 24/22° C. (day/night) and 70% rh under a light regime of 14/10 h (light/dark) and the percentage leaf area covered by disease is assessed when an appropriate level of disease appears on untreated check plants (7-9 days after application).

[2] = system: Botryotinia fuckeliana (Botrytis cinerea); assay: Botryotinia fuckeliana (Botrytis cinerea) / tomato / preventative (Botrytis on tomato); settings: tomato plants cv. Roter Gnom, inoculated two days after application, vs untreated control, read-out: disease control
Protocol: Botryotinia fuckeliana (Botrytis cinerea)/Tomato/Preventative (Botrytis on Tomato) 4-week old tomato plants cv. Roter Gnom are treated with the formulated test compound in a spray chamber. The test plants are inoculated by spraying them with a spore suspension two days after application. The inoculated test plants are incubated at 20° C. and 95% rh in a greenhouse and the percentage leaf area covered by disease is assessed when an appropriate level of disease appears on untreated check plants (5-6 days after application).

Alternaria solani = Alternaria solani / tomato / preventative (Alternaria on tomato); settings: tomato plants cv. Roter Gnom, inoculated two days after application, vs untreated control, read-out: disease control
Protocol: Alternaria solani/Tomato/Preventative (Alternaria on Tomato) 4-week old tomato plants cv. Roter Gnom are treated with the formulated test compound in a spray chamber. The test plants are inoculated by spraying them with a spore suspension two days after application. The inoculated test plants are incubated at 22/18° C. (day/night) and 95% rh in a greenhouse and the percentage leaf area covered by disease is assessed when an appropriate level of disease appears on untreated check plants (5-7 days after application).

Plasmopara viticola = Plasmopara viticola / grape / preventative (grape downy mildew); settings: grape seedlings cv. Gutedel, inoculated one day after application, vs untreated control, read-out: disease control
Protocol: Plasmopara viticola/Grape/Preventative (Grape Downy Mildew)
5-week old grape seedlings cv. Gutedel are treated with the formulated test compound in a spray chamber. The test plants are inoculated by spraying a sporangia suspension on their lower leaf surface one day after application. The inoculated test plants are incubated at 22° C. and 100% rh in a greenhouse and the percentage leaf area covered by disease is assessed when an appropriate level of disease appears on untreated check plants (6-8 days after application).

[3] = system: Pyrenophora teres (Helminthosporium teres); assay: Pyrenophora teres (Helminthosporium teres) / barley / preventative (net blotch on barley); settings: barley plants cv. Regina, inoculated 2 days after application, vs untreated control, read-out: disease control
Protocol: Pyrenophora teres (Helminthosporium teres)/Barley/Preventative (Net Blotch on Barley) 1-week old barley plants cv. Regina are treated with the formulated test compound in a spray chamber. The test plants are inoculated by spraying them with a spore suspension 2 days after application. The inoculated test plants are incubated at 20° C. and 95% rh and the percentage leaf area covered by disease is assessed when an appropriate level of disease appears on untreated check plants (5-7 days after application).

Phytophthora infestans = assay: whole plant or invertebrate; settings: in Solanum tuberosum, read-out: disease control
[4] = system: Mycosphaerella arachidis (Cercospora arachidicola); assay: Mycosphaerella arachidis (Cercospora arachidicola) / peanut / preventative; settings: peanut plants cv. Georgia Green, inoculated one day after application, vs untreated control, read-out: disease control
Protocol: Mycosphaerella arachidis (Cercospora arachidicola)/Peanut/Preventative 3-week old peanut plants cv. Georgia Green are treated with the formulated test compound in a spray chamber. The test plants are inoculated by spraying them with a spore suspension on their lower leaf surface one day after application. After an incubation period of 4 days under a plastic hood at 23° C. and 100% rh, the test plants are kept at 23° C./20° C. (day/night) and 70% rh in a greenhouse. The percentage leaf area covered by disease is assessed when an appropriate level of disease appears on untreated check plants (12-14 days after application).

[5] = system: Mycosphaerella graminicola (Septoria tritici); assay: Mycosphaerella graminicola (Septoria tritici) / wheat / preventative (Septoria tritici leaf spot on wheat); settings: Zymoseptoria tritici, wheat plants cv. Riband, inoculated one day after application, vs untreated control, read-out: disease control
Protocol: Mycosphaerella graminicola (Septoria tritici)/Wheat/Preventative (Septoria tritici Leaf Spot on Wheat) 2-week old wheat plants cv. Riband are treated with the formulated test compound in a spray chamber. The test plants are inoculated by spraying a spore suspension on them one day after application. After an incubation period of 1 day at 22° C./21° C. (day/night) and 95% rh, the test plants are kept at 22° C./21° C. (day/night) and 70% rh in a greenhouse. The percentage leaf area covered by disease is assessed when an appropriate level of disease appears on untreated check plants (16-19 days after application).

[6] = system: Phaeosphaeria nodorum (Septoria nodorum); assay: Phaeosphaeria nodorum (Septoria nodorum) / wheat / leaf disc preventative (glume blotch); settings: Parastagonospora nodorum, foliar, wheat leaf segments cv. Kanzler on agar, inoculated 2 days after application, vs untreated control, read-out: disease control
Protocol: Phaeosphaeria nodorum (Septoria nodorum)/Wheat/Leaf Disc Preventative (Glume Blotch) Wheat leaf segments cv. Kanzler are placed on agar in a multiwell plate (24-well format) and sprayed with the formulated test compound diluted in water. The leaf disks are inoculated with a spore suspension of the fungus 2 days after application. The inoculated test leaf disks are incubated at 20° C. and 75% rh under a light regime of 12 h light/12 h darkness in a climate cabinet and the activity of a compound is assessed as percent disease control compared to untreated when an appropriate level of disease damage appears in untreated check leaf disks (5-7 days after application).

Measured: pest or weed control at 200 ppm

Cc1ccc(-c2nc(-c3ncc4ccccc4n3)ccc2C)cc1Cl [3/21]
≥ 80%: [1] | [2] | Alternaria solani | Plasmopara viticola

Cc1ccc(-c2ncc3ccccc3n2)nc1Oc1ccccc1 [5/18]
≥ 80%: [3] | [2] | Alternaria solani | Phytophthora infestans | Plasmopara viticola

Cc1ccc(C)c(-c2cccc(-c3ncc4ccccc4n3)n2)c1 [2/54]
≥ 80%: [1] | [3] | Alternaria solani | Plasmopara viticola | [4]

COc1ccc(-c2nc(-c3ncc4ccccc4n3)ccc2C)c(C)c1 [3/53]
not listed: Phytophthora infestans | [5] | [6]
≥ 80%: all other assays above

Cc1ccc(-c2ncc3ccccc3n2)nc1-c1cccc(F)c1F [3/38]
not listed: Phytophthora infestans | [5] | [6]
≥ 80%: all other assays above

Cc1ccc(-c2ncc3ccccc3n2)nc1Cc1ccccc1 [7/17]
≥ 80%: Alternaria solani | Phytophthora infestans | [5] | [4]

Cc1cccc(Cc2cccc(-c3ncc4ccccc4n3)n2)c1F [6/12]
not listed: Plasmopara viticola | Phytophthora infestans | [6]
≥ 80%: all other assays above

Cc1ccc(-c2ncc3ccccc3n2)nc1-c1ccc(F)c(F)c1 [3/89]
not listed: Phytophthora infestans | [6]
≥ 80%: all other assays above

Cc1ccc(-c2ncc3ccccc3n2)nc1Cc1cccc(C)c1F [7/7]
≥ 80%: [1] | [3] | Alternaria solani | Plasmopara viticola

Cc1cccc(-c2ncc3ccccc3n2)n1 [10/4]
≥ 80%: [1] | [4]

Cc1ccc(-c2nc(C)c3ccccc3n2)nc1-c1ccccc1 [11/8, 4-Methyl-2-(5-methyl-6-phenyl-pyridin-2-yl)-quinazoline]
not listed: [2] | Phytophthora infestans | [6]
≥ 80%: all other assays above

COc1cccc(-c2cccc(-c3ncc4ccccc4n3)n2)c1F [2/60]
≥ 80%: [6] | [2] | Alternaria solani | Phytophthora infestans | Plasmopara viticola

Clc1cccc(Cc2cccc(-c3ncc4ccccc4n3)n2)c1 [6/11]
not listed: Plasmopara viticola | Phytophthora infestans | [6]
≥ 80%: all other assays above

Cc1nc(-c2cccc(Cc3ccccc3)n2)nc2ccccc12 [12/6]
≥ 80%: [1] | [6] | Alternaria solani

Clc1ccccc1Cc1cccc(-c2ncc3ccccc3n2)n1 [6/16]
not listed: Phytophthora infestans | [4] | [6]
≥ 80%: all other assays above

Cc1ccc(-c2ncc3ccccc3n2)nc1-c1cccc(F)c1 [3/77]
≥ 80%: Alternaria solani | Phytophthora infestans | Plasmopara viticola | [5]

Cc1ccc(-c2ncc3ccccc3n2)nc1-c1ccc(F)cc1 [3/72]
≥ 80%: [3] | [2] | Alternaria solani | Phytophthora infestans | Plasmopara viticola

c1cc(-c2ncc3ccccc3n2)nc(C2CC2)c1 [10/7]
≥ 80%: [1] | [2] | Plasmopara viticola | [4]

Cc1ccccc1-c1nc(-c2ncc3ccccc3n2)ccc1C [3/76]
not listed: [1] | [6]
≥ 80%: all other assays above

COc1ccc(Cl)cc1-c1cccc(-c2ncc3ccccc3n2)n1 [2/68]
≥ 80%: [1] | Alternaria solani | Plasmopara viticola

Cc1ccc(-c2ncc3ccccc3n2)nc1-c1ccccc1 [3/71]
not listed: [1] | [4] | [6]
≥ 80%: all other assays above
